According to patent US8900590B2 (priority 2010, dated 2014):

System: H1N1 A/California/04/09
Format: in vivo, DBA/2 mice
Settings: 18 days

Q: How did the animals survived turn out when `CCOC(=O)C1=C[C@@H](OC(CC)CC)[C@H](NC(C)=O)[C@@H](N)C1` [oseltamivir] was run?
A: no survival
